Laboratory results: patent US6831069B2, “Pyrrolo[2,3-d]pyrimidine nucleoside analogs” (priority 1999, dated 2004)
Counter-ions that a name gives are not always drawn.

Key:
[1] = tested on: Human Prostate cancer cells, HTB81; test: VEGF secretion, VEGF Elisa Assay; format: cell-based; conditions: 72 hrs treatment
Experimental: The compounds 23a(5′-R) and 23a(5′-S) are potent in inhibition of secretion of Vascular Endothelial Growth Factor (VEGF) from Human Prostate cancer cells, HTB81. VEGF is recognized as angiogenesis marker since this molecule is crucial for migration and growth of endothelial cells and microvessel formation in vivo. […] The compounds were applied just after plating for 72 hrs. After that, the medium was collected and the level of VEGF was measured using VEGF Elisa Assay (R & D Systems) and expressed as pg of VEGF per ml of the medium.

[2] = tested on: Human Prostate cancer cells, HTB81; test: IL-8 secretion, IL-8 Elisa Assay; format: cell-based; conditions: concentrations indicated in FIG. 12
Text: The compound 23a(5′-R) and 23a(5′-S) indicate an inhibitory effect on secretion of Interleukin-8 (IL-8) from human prostate cancer cells, HTB81. IL-8 belongs to the class of chemo-attractant chemokines (type alpha), which are involved in inflammation processes due to attraction of neutrophils. Chemokines, in general, are known to be produced by various types of cancer. It is proven in several studies that inhibition of chemokine production by cancer cells is beneficial for the host. […] The medium collected from the culture was analyzed for IL-8 level using IL-8 Elisa Assay from R&D Systems.

[3] = tested on: activated human T cells; test: Analysis of cytokine mRNA (RT-PCR, Southern blot) in PMA-ION activated human T cells; format: cell-based; conditions: experiment corresponding to FIG. 18; FIG. 26
[4] = tested on: B10.PL (H-2u) mice; test: Murine EAE model of multiple sclerosis, prophylactic treatment; format: in vivo, mouse; conditions: 0.1 mg/kg IP daily for 10d before induction of disease
[5] = tested on: BALB/c and C57BL/6 lymph node CD4+ T cells; test: Generation of murine Th1 cells, IL-4 and IFNγ ELISA after restimulation; format: cell-based, mouse; conditions: murine CD4+ cells induced with IL-2, IFN-γ, IL-12; BALB/c and C57BL/6; versus without compound
[6] = tested on: PHA stimulated T-cells; test: Type 1 and Type 2 cytokines in PHA stimulated T-cells; format: cell-based, human; conditions: FIG. 24

`C[C@H](O)[C@H]1O[C@@H](n2cc(C#N)c3c(N)ncnc32)[C@H](O)[C@@H]1O` [23a(5′-S), 4-Amino-5-cyano-7-(5(S)-C-methyl-β-D-ribofuranosyl)pyrrolo[2,3-d]pyrimidine] was tested, and the “secretion of VEGF” value [1] was “inhibit secretion of VEGF in a dose-dependent manner” and the “secretion of IL-8” value [2] was “inhibit secretion of IL-8 in a dose-dependent manner”.
`Cl.N=C(N)c1cn([C@@H]2O[C@H](CO)[C@@H](O)[C@H]2O)c2nc[nH]c(=O)c12` [ICN 17739, 7-(β-D-ribofuranosyl)pyrrolo[2,3-d]-4-pyrimidone-5-carboxamidine Hydrochloride] was tested, and the “anti-inflammatory and anti-proliferative responses (RNA expression)” value [3] was “induction of anti-inflammatory and anti-proliferative responses”.
`C[C@@H](O)[C@H]1O[C@@H](n2cc(C#N)c3c(N)ncnc32)[C@H](O)[C@@H]1O` [23a(5′-R), 4-Amino-5-cyano-7-(5(R)-C-methyl-β-D-ribofuranosyl)pyrrolo[2,3-d]pyrimidine] was tested, and the “secretion of VEGF” value [1] was “inhibit secretion of VEGF in a dose-dependent manner” and the “secretion of IL-8” value [2] was “inhibit secretion of IL-8 in a dose-dependent manner”.
`N=C(N)c1cn([C@@H]2O[C@H](CO)[C@H](O)C2O)c2nc[nH]c(=O)c12` (stereo partly drawn) [ICN 17739, 7-(β-D-ribofuranosyl)pyrrolo[2,3-d]-4-pyrimidone-5-carboxamidine Hydrochloride] was tested, and the “MBP-specific Th2 cytokine producing T-cells” value [4] was “induces MBP-specific Th2 cytokine producing T-cells”, the “onset of murine EAE” value [4] was “clearly delayed onset” and the “IFN-γ production of induced Th1 cells” value [5] was “significantly decreased”. The “IL-4 production of induced Th1 cells” value [5] was “significantly increased”, the “Type 1 cytokines” value [6] was “significant decrease” and the “production of Type 2 cytokines” value [6] was “significant increase”.
